Experimental data: patent publication US8227636B2, “Histone deacetylase inhibitor prodrugs” (Merck HDAC Research, LLC, priority 2004, dated 2012)

Legend:
[1] = target: T1, histone deacetylase, subtype 1 (HDAC1) (Homo sapiens, UniProt Q13547); experiment: HDAC1-Flag assay (in vitro deacetylation assay); assay type: biochemical; settings: for inhibition at 10 µM: 10 μM compound, read-out: HDAC1 % INH 10 μM; for inhibition at 100 µM: 100 μM compound, read-out: HDAC1 % INH 100 μM; for IC50: epitope-tagged human HDAC1 complex, substrate at Km, fluorogenic acetylated lysine substrate, read-out: HDAC1 IC50 Ave
T1 construct: Flag; made in house
Protocol: Novel compounds were tested for their ability to inhibit histone deacetylase, subtype 1 (HDAC1) using an in vitro deacetylation assay. The enzyme source for this assay was an epitope-tagged human HDAC1 complex immuno-purified from stably expressing mammalian cells. The substrate consisted of a commercial product containing an acetylated lysine side chain (BIOMOL Research Laboratories, Inc., Plymouth Meeting, Pa.). Upon deacetylation of the substrate by incubation with the purified HDAC1 complex, a fluorophore is produced that is directly proportional to the level of deacetylation.

[2] = tested on: murine erythroleukemia cell line SC9; experiment: MTS assay (Cell Titer 96 Aqueous One Solution Cell Proliferation Assay); assay type: cell-based; settings: Mus musculus; SC9 cells, 48 hours incubation; unit inferred
Protocol: The novel compounds of the present invention were tested for their ability to inhibit proliferation of the murine erythroleukemia cell line SC9. The MTS assay, also referred to as the Cell Titer 96 Aqueous One Solution Cell Proliferation Assay, is a colorimetric method for determining the number of viable cells in proliferation, cytotoxicity, or chemosensitivity assays. […] Murine erythroleukemia cells (SC-9) were incubated with vehicle or increasing concentrations of compound for 48 hours.

T1 sequence (Q13547 whole entry): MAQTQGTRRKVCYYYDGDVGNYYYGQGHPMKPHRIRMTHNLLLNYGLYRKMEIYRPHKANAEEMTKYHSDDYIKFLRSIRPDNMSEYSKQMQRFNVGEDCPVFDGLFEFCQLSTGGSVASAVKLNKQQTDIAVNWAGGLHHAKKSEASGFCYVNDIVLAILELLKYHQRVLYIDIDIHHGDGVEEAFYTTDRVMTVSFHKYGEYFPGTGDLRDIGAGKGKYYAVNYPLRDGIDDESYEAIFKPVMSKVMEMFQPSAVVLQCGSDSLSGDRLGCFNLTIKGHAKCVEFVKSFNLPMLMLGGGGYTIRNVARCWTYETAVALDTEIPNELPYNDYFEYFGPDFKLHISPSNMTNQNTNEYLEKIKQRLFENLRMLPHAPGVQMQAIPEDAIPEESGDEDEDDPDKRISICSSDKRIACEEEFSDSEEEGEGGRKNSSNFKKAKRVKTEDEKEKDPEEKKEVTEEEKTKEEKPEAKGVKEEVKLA

Q: For O=C(CCCCCCC(=O)Nc1ccccc1)NOC(=O)/C=C/c1ccccc1 [VII, Octanedioic acid (3-phenyl-acryloyloxy)-amide phenylamide], which inhibition at 10 µM [1] is on record?
A: 26%

Q: What about the inhibition at 100 µM [1] of the same compound?
A: 45%

Q: What about the IC50 [2] of the same compound?
A: 648 nM

Q: Which results are given for O=C(CCCCCCC(=O)Nc1ccccc1)NOC(=O)c1ccc2ccccc2c1 [X, Octanedioic acid (naphthalene-2-carbonyloxy)-amide phenylamide]?
A: inhibition at 10 µM [1]: 9%; inhibition at 100 µM [1]: 22%; IC50 [2]: 1790 nM

Q: What does the source list for O=C(CCCCCCC(=O)Nc1ccccc1)NOC(=O)c1ccc(Cl)cc1 [XVI, Octanedioic acid (4-chloro-benzoyloxy)-amide phenylamide]?
A: inhibition at 10 µM [1]: 24%; inhibition at 100 µM [1]: 36%; IC50 [2]: 434 nM

Q: How did the inhibition at 10 µM [1] turn out when O=C(CCCCCCC(=O)Nc1ccccc1)NOC(=O)CCCc1ccccc1 [VI, Octanedioic acid phenylamide(4-phenyl-butyryloxy)-amide] was run?
A: 27%

Q: And the inhibition at 100 µM [1]?
A: 62%

Q: What about the IC50 [2] of the same compound?
A: 1540 nM

Q: Which results are given for CC(=O)ONC(=O)CCCCCCC(=O)Nc1ccccc1 [II, Octanedioic acid acetoxy-amide phenylamide]?
A: inhibition at 10 µM [1]: -17%; inhibition at 100 µM [1]: 2%; IC50 [2]: 246 ± 78.4 nM

Q: Which inhibition at 10 µM [1] does the source give for O=C(CCCCCCC(=O)Nc1ccccc1)NOC(=O)[C@@H](Cc1ccccc1)NC(=O)OCc1ccccc1 [XVIII, [1-Benzyl-2-oxo-2-(7-phenylcarbamoyl-heptanoylaminooxy)-ethyl]-carbamic acid benzyl ester] here?
A: 78%

Q: What about the inhibition at 100 µM [1] of the same compound?
A: 93%

Q: What about the IC50 [2] of the same compound?
A: 443 nM

Q: Which inhibition at 10 µM [1] does the source give for O=C(CCCCCCC(=O)Nc1ccccc1)NOC(=O)c1cccnc1 [III, Octanedioic acid phenylamide(pyridine-3-carbonyloxy)-amide] here?
A: 87%

Q: What about the inhibition at 100 µM [1] of the same compound?
A: 97%

Q: What about the IC50 [1] of the same compound?
A: 582 ± 312 nM

Q: What about the IC50 [2] of the same compound?
A: 252 ± 56.5 nM

Q: Which results are given for O=C(CCCCCCC(=O)Nc1ccccc1)NOC(=O)c1ccc(-c2ccccc2)cc1 [VIII, Octanedioic acid (biphenyl-4-carbonyloxy)-amide phenylamide]?
A: inhibition at 10 µM [1]: 94%; inhibition at 100 µM [1]: 99%; IC50 [2]: 1380 nM

Q: Which results are given for CCCCc1ccc(C(=O)ONC(=O)CCCCCCC(=O)Nc2ccccc2)cc1 [IV, Octanedioic acid (4-butyl-benzoyloxy)-amide phenylamide]?
A: inhibition at 10 µM [1]: 10%; inhibition at 100 µM [1]: 50%; IC50 [2]: 1760 nM

Q: For O=C(CCCCCCC(=O)Nc1ccccc1)NOC(=O)c1ccccc1 [IX, Octanedioic acid benzoyloxy-amide phenylamide], which inhibition at 10 µM [1] is on record?
A: 20%

Q: What about the inhibition at 100 µM [1] of the same compound?
A: 60%

Q: And the IC50 [2]?
A: 1200 nM

Q: How did the inhibition at 10 µM [1] turn out when O=C(CCCCCCC(=O)Nc1ccccc1)NOC(=O)c1cccc2ccccc12 [XI, Octanedioic acid (naphthalene-1-carbonyloxy)-amide phenylamide] was run?
A: 5%

Q: What about the inhibition at 100 µM [1] of the same compound?
A: 5%

Q: What about the IC50 [2] of the same compound?
A: 5220 nM

Q: With COc1cccc(C(=O)ONC(=O)CCCCCCC(=O)Nc2ccccc2)c1 [XII, Octanedioic acid (3-methoxy-benzoyloxy)-amide phenylamide] as the compound, how does the inhibition at 10 µM [1] read?
A: 20%

Q: And the inhibition at 100 µM [1]?
A: 43%

Q: And the IC50 [2]?
A: 494 nM

Q: Which results are given for Cc1ccc(C(=O)ONC(=O)CCCCCCC(=O)Nc2ccccc2)cc1 [XIV, Octanedioic acid (4-methyl-benzoyloxy)-amide phenylamide]?
A: inhibition at 10 µM [1]: 38%; inhibition at 100 µM [1]: 74%; IC50 [2]: 862 nM

Q: Which inhibition at 10 µM [1] does the source give for COc1ccccc1C(=O)ONC(=O)CCCCCCC(=O)Nc1ccccc1 [XV, Octanedioic acid (2-methoxy-benzoyloxy)-amide phenylamide] here?
A: 23%

Q: What about the inhibition at 100 µM [1] of the same compound?
A: 48%

Q: And the IC50 [2]?
A: 592 nM

Q: With O=C(CCCCCCC(=O)Nc1ccccc1)NOC(=O)CCc1ccccc1 [V, Octanedioic acid phenylamide(3-phenyl-propionyloxy)-amide] as the compound, how does the inhibition at 10 µM [1] read?
A: 64%

Q: What about the inhibition at 100 µM [1] of the same compound?
A: 90%

Q: What about the IC50 [1] of the same compound?
A: 1680 ± 1200 nM

Q: And the IC50 [2]?
A: 491 ± 327 nM

Q: Which results are given for COc1ccc(C(=O)ONC(=O)CCCCCCC(=O)Nc2ccccc2)cc1 [XIII, Octanedioic acid (4-methoxy-benzoyloxy)-amide phenylamide]?
A: inhibition at 10 µM [1]: 21%; inhibition at 100 µM [1]: 65%; IC50 [2]: 748 nM

Q: What does the source list for O=C(CCCCCCC(=O)Nc1ccccc1)NOC(=O)[C@H](Cc1ccccc1)NC(=O)OCc1ccccc1 [XVII, [1-Benzyl-2-oxo-2-(7-phenylcarbamoyl-heptanoylaminooxy)-ethyl]-carbamic acid benzyl ester]?
A: inhibition at 10 µM [1]: 94%; inhibition at 100 µM [1]: 99%; IC50 [2]: 753 nM

Q: Which inhibition at 10 µM [1] does the source give for O=C(CCCCCCC(=O)Nc1ccccc1)NOC(=O)CCCCCCC(=O)Nc1ccccc1 [I, Octanedioic acid phenylamide(7-phenylcarbamoyl-heptanoyloxy)-amide] here?
A: 45%

Q: And the inhibition at 100 µM [1]?
A: 79%

Q: And the IC50 [1]?
A: 51900 nM

Q: And the IC50 [2]?
A: 785 ± 4.9 nM

Q: How did the inhibition at 10 µM [1] turn out when CC(C)(C)OC(=O)N[C@@H](Cc1ccccc1)C(=O)ONC(=O)CCCCCCC(=O)Nc1ccccc1 [XIX, [1-Benzyl-2-oxo-2-(7-phenylcarbamoyl-heptanoylaminooxy)-ethyl]-carbamic acid tert-butyl ester] was run?
A: 87%

Q: What about the inhibition at 100 µM [1] of the same compound?
A: 96%

Q: What about the IC50 [2] of the same compound?
A: 446 nM
